Legend:
[1] = system: binge alcohol-induced neurodegeneration; settings: transdermal delivery, rodent model; Liputa et al. 2013; cited from earlier work
[2] = Effects reported by people when the CBD alcoholic drink is consumed; assay type: in vivo; settings: CBD consumed together with alcohol in the drink; reports of consumers
Source text: When consumed, the positive effects of the CBD help to offset the deleterious effects of the alcohol.

[3] = Dissolution of CBD in ethanol and consumable alcohol (precipitation / clarity); assay type: physicochemical
Procedure: The Combining Cannabinoid Solution with Consumable Alcohol(s) step 156 involves adding the Solution from 154 to a plurality of consumable alcohols measured in 155 in order to create a CAD. In one example, 50 mg of isolated cannabinoid is measured 151. Approximately 5 mL of ethanol is measured 152. The cannabinoid is combined with the ethanol 153. A cannabinoid solution is created by ensuring the cannabinoid is fully dissolved in the ethanol 154. The resulting solution is then combined with one or more consumable alcohols 156. In this example, approximately 745 mL of vodka, to create a standard 750 mL bottle of cannabinoid infused vodka. In other embodiments, other volumes of CADs can be produced. In yet another embodiment, the volume fraction of cannabinoid/ethanol solution in total volume of CADs is equal to or less than 1%.
One particular cannabinoid that can be used is CBD. […] Thus, the CBD and ethanol combine to remain as a fully dissolved, clear solution. […]
The Combining CBD/Ethanol Solution with consumable Alcohol(s) step 256 involves adding the Solution from 254 to the plurality of consumable alcohols measured in 255 in order to create a CAD. In one example, 50 mg of isolated CBD is measured 251. Approximately 5 mL of ethanol is measured 252. […]

SMILES: C=C(C)[C@@H]1CCC(C)=C[C@H]1c1c(O)cc(CCCCC)cc1O [CBD, cannabidiol]
- effect on binge alcohol-induced neurodegeneration [1]: attenuate binge alcohol-induced neurodegeneration
- effects reported when consumed [2]: euphoria, a sense of being upbeat and feeling little to no effect of the alcohol
- dissolution of CBD in ethanol ([3]; 7.8 mg CBD in 1 mL ethanol): no problem with dissolution
- precipitation of CBD from the solution ([3]; amounts/ratios described: 50 mg in approx. 5 mL ethanol, combined with approx. 745 mL vodka, room temperature): will not precipitate out

— patent publication US10085965B2, “Cannabinoid alcoholic drink” (priority 2016, dated 2018)
